From US12371430B2, “5-morpholin-4-yl-pyrazolo[4,3-b]pyridine derivatives” (Merck Patent GmbH, priority 2018, dated 2025)

Key:
[1] = test system: phosphorylation of Chk1 (Ser 345) in HT29 colon adenocarcinoma cells; test: pCHK1 cellular assay; format: cell-based; details: Homo sapiens, HT-29, hydroxyurea 3 mM, 4 h
Outline: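 HT29 cells plated ≥20 h, then compound (1 nM–30 μM final) with hydroxyurea (3 mM final) added together for 4 h at 37 °C. After MeOH/Triton fixation-permeabilisation, anti-pChk1 immunostaining plus nuclear stain; nuclear pChk1 imaged by confocal high content reader, reported as % positive nuclei.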

ATR/ATRIP = ATR/ATRIP (Homo sapiens (Human), UniProt Q13535); test: ATR/ATRIP kinase assay (TR-FRET, p53 Ser15 phosphorylation); format: biochemical; details: 0.5 μM ATP, 50 nM p53
Outline: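 Full-length human ATR/ATRIP co-expressed in mammalian cells (typically 0.3 nM) preincubated with compound 15 min at 22° C, then 50 nM cmyc-p53 and 0.5 μM ATP added for typically 25 min; HEPES pH 8.0 with Mg2+/Mn2+. p53 Ser15 phosphorylation read by HTRF (665/615 ratio); IC50 by nonlinear regression.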

[2] = target: Kv11.1 (hERG) ion channel (Homo sapiens (Human), UniProt Q12809); test: Kv11.1 (hERG) ion channel activity, whole cell patch clamp in HEK293; format: cell-based; details: for Ki: heading: hERG Ki, HEK293 cells stably expressing hERG, patch clamp
Experimental: Kv11.1 (hERG) Ion Channel Activity
In this assay, a potential in vitro effect of test compounds on the Kv11.1 (hERG) ion channel current is investigated which mediates the rapidly activating, delayed rectifier cardiac potassium current (IKr). The assay is performed with a stable Kv11.1 (hERG) transfected human embryonic kidney cell line (HEK293) by whole cell patch clamp technique carried out at room temperature.
The Kv11.1 (hERG) ion channel blocker quinidine is used as reference compound. The effects of the test compounds and quinidine are normalized to the corresponding vehicle control. The whole cell recordings are carried out with an automated patch clamp device Patchliner™, Nanion Technologies, Munich). Hereby the Patch Clamp measurements run on silicate-coated chips with a hole of a defined diameter. Solutions, cell suspension and compounds are applied by a Teflon-laminated pipette needle through microfluidic silicate-laminated channels. Commercial patch clamp amplifiers (EPC10, HEKA Elektronik Dr. Schulze GmbH, Germany) are used for the patch clamp recordings. HEK293 cells stably expressing the hERG gene are held at −80 mV. Steady-state inhibition of Kv11.1 (hERG) potassium current due to test/reference compound application is measured using a pulse pattern with fixed amplitudes: 51 ms/−80 mV, 500 ms/+40 mV, 500 ms/−40 mV, 200 ms/−80 mV. The hERG-specific voltage protocol is repeated at 10 s intervals. The leak current is subtracted by a P4 leak subtraction. Cells are resuspended in extracellular patch clamp solution (EC) and applied into the chip. After trapping the cell, the EC is exchanged by seal enhancer solution (SE) to improve the sealing procedure. When the whole cell configuration is attained, seal enhancer is washed out by the application of EC. The recording is started in EC for 1.5 min. Afterwards DMSO (vehicle control, 0.1% DMSO) is applied and the control current is measured for 3 min. Following control steady-state current, test compound is applied twice at the same concentration and the tail current is measured for 3.5 min each. For the determination of a concentration-relationship, the test compound is applied as a cumulative concentration-response curve and each concentration is measured for 5 min. The reference compound quinidine is treated in the same way. The effect on Kv11.1 (hERG) ion channel activity is judged from the tail current amplitude monitored at −40 mV (current of interest, COI). Results are calculated from the last recorded current traces. Changes in Kv11.1 (hERG) ion channel activity between control value, defined as 100% Kv11.1 (hERG) ion channel activity, application of test compound and application of quinidine is reported as percent change of control value of COI. An aliquot of test compound is collected for concentration verification during the recording. The sample is immediately measured by HPLC and the final compound concentration within the assay is calculated according to a calibration curve.

ATR/ATRIP, sequence (Q13535 whole entry): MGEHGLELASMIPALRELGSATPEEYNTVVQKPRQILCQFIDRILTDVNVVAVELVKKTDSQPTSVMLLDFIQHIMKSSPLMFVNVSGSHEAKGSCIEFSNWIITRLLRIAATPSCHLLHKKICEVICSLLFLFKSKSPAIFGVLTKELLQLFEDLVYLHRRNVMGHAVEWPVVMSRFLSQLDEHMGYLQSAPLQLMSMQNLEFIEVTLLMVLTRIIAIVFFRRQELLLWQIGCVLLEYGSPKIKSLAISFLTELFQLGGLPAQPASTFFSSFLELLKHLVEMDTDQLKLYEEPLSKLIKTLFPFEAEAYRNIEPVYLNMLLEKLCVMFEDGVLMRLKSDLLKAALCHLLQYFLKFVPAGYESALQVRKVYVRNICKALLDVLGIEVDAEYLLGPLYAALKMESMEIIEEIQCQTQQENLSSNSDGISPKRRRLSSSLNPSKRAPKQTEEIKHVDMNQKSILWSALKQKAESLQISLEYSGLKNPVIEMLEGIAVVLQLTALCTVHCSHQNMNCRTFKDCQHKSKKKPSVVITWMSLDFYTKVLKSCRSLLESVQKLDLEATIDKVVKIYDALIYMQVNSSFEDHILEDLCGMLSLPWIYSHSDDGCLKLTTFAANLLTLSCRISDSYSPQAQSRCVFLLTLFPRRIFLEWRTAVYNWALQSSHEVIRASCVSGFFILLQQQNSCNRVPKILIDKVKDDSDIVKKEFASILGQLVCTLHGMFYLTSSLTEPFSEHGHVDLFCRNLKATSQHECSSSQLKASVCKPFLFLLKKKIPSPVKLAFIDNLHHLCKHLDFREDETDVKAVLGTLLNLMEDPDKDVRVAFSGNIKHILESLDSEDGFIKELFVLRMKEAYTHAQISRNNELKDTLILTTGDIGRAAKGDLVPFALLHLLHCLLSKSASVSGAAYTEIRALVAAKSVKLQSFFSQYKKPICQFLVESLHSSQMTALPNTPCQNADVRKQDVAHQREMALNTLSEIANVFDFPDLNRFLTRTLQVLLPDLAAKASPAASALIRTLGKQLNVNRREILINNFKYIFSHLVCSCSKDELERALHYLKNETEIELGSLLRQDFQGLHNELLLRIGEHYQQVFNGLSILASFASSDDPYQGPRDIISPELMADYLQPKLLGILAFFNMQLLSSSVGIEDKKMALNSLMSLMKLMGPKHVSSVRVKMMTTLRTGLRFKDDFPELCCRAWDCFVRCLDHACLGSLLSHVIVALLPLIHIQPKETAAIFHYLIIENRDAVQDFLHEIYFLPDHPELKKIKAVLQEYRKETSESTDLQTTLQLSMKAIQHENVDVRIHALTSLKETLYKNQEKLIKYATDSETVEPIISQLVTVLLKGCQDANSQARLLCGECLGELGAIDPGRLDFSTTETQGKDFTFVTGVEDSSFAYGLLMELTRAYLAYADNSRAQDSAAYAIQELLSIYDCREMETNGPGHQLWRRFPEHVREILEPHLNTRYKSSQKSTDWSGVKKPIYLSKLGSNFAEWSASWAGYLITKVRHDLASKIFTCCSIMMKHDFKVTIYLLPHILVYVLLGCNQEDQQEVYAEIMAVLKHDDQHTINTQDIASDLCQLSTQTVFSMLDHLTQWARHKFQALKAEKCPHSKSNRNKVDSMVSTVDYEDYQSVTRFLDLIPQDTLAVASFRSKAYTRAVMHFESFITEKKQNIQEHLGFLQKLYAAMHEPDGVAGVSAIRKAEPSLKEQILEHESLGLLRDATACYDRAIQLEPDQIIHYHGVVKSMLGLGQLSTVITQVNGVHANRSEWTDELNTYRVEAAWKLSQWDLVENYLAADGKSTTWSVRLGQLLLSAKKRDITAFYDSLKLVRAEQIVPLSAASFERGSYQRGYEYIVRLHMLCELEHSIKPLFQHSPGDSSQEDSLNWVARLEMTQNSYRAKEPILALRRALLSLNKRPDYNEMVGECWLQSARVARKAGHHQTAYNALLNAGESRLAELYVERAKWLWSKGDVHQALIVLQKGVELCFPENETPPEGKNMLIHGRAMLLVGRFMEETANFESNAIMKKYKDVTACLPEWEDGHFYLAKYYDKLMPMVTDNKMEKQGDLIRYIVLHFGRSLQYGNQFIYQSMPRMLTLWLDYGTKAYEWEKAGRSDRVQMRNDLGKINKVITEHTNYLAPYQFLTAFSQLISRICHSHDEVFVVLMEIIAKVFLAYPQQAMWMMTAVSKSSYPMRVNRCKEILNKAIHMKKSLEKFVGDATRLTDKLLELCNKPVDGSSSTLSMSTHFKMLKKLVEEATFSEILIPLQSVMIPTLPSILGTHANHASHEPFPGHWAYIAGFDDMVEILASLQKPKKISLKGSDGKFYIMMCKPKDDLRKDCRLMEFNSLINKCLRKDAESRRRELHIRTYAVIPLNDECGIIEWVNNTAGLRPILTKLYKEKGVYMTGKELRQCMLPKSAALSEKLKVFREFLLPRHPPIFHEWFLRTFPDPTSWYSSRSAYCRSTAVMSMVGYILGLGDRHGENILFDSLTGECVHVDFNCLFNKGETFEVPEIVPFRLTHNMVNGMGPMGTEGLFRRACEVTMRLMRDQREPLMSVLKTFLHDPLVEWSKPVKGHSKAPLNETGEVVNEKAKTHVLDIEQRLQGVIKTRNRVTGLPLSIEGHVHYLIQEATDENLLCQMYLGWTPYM
ATR/ATRIP, sequence (Q8WXE1 whole entry partner): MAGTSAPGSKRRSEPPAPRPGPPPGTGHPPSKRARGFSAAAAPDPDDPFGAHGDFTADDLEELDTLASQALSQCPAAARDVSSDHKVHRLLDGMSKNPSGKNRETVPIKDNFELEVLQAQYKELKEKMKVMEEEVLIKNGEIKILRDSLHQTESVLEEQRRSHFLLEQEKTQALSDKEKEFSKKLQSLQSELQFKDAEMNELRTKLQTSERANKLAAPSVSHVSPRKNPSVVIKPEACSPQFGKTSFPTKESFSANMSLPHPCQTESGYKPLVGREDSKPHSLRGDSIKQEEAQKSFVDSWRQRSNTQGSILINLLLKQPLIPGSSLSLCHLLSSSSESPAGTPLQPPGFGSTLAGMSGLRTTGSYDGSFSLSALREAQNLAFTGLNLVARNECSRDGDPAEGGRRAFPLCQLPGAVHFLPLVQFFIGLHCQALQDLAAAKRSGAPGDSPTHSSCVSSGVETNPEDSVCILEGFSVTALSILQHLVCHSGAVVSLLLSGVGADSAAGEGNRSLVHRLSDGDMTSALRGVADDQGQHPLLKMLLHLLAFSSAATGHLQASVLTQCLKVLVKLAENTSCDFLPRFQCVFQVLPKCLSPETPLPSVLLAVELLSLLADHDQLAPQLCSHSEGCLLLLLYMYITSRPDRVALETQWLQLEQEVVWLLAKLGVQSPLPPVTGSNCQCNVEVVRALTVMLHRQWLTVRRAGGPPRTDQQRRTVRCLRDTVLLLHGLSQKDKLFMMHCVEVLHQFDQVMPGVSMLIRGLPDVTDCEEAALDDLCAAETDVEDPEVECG
Kv11.1 (hERG) ion channel, sequence (Q12809 whole entry): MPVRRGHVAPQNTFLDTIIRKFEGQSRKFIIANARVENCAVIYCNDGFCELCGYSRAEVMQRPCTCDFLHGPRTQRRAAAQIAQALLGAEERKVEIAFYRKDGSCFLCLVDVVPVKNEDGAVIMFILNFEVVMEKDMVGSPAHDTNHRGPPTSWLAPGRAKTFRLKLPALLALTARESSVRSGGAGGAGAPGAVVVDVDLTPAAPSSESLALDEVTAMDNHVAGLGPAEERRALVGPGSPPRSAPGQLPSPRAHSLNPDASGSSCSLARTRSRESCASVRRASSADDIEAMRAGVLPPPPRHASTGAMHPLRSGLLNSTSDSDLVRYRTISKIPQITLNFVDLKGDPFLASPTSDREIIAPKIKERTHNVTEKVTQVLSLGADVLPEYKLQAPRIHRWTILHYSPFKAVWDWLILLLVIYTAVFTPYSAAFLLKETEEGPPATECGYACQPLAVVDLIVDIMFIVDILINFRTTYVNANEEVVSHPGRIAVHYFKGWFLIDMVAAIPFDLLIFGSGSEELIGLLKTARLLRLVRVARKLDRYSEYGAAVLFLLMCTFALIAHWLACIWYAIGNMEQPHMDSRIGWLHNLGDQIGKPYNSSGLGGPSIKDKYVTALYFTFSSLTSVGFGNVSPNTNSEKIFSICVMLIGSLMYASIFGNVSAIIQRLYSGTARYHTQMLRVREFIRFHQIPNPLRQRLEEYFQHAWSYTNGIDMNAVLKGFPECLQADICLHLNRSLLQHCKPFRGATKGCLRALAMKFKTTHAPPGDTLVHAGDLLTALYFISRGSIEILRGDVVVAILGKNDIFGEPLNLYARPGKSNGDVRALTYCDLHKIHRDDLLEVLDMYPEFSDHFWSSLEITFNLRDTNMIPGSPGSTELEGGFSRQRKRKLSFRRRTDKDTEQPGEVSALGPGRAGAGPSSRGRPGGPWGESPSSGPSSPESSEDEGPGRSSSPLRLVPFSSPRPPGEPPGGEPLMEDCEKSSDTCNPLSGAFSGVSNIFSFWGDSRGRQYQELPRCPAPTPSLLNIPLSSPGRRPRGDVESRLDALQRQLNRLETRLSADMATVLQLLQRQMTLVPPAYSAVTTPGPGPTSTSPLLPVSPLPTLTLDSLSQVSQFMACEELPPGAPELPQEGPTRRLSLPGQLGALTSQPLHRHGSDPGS

With `Cc1cc(S(C)(=O)=O)ccc1-c1cc(N2CCOC[C@H]2C)nc2c(-c3cc[nH]n3)nn(C)c12` [Compound 50, (3R)-4-[7-(4-Methanesulfonyl-2-methylphenyl)-1-methyl-3-(1H-pyrazol-3-yl)-1H-pyrazolo[4,3-b]pyridin-5-yl]-3-methylmorpholine] the IC50 [1] was under 0.01 µM, the IC50 (ATR/ATRIP) was 0.0013 µM and the “hERG % effect @ conc” value ([2]; @ 10 μM) was −17%. For the same molecule, the Ki [2] was over 10 µM.
`CC(C)n1cc(-c2cc(N3CCOC[C@H]3C)nc3c(-c4cc[nH]n4)nn(C)c23)cn1` [Compound 18, 7-(1-Isopropyl-1H-pyrazol-4-yl)-1-methyl-5-((R)-3-methyl-morpholin-4-yl)-3-(1H-pyrazol-3-yl)-1H-pyrazolo[4,3-b]pyridine] was tested, and the IC50 [1] was 0.1 to 1 µM, the IC50 (ATR/ATRIP) was 0.0062 µM and the “hERG % effect @ conc” value ([2]; @ 10 μM) was −14%. The Ki [2] was over 10 µM.
With `C[C@@H]1COCCN1c1cc(-c2ccnc3[nH]ccc23)c2c(n1)c(-c1cc[nH]n1)nn2C` [Compound 15, 1-Methyl-5-((R)-3-methyl-morpholin-4-yl)-3-(1H-pyrazol-3-yl)-7-(1H-pyrrolo[2,3-b]pyridin-4-yl)-1H-pyrazolo[4,3-b]pyridine] the IC50 [1] was 0.01 to 0.1 µM, the IC50 (ATR/ATRIP) was 0.0006 µM and the “hERG % effect @ conc” value ([2]; @ 10 μM) was −24%. It also gave a Ki [2] of over 10 µM.
`C[C@@H]1COCCN1c1cc(C2=CCOCC2)c2c(n1)c(-c1cc[nH]n1)nn2C` [Compound 54, (3R)-4-[7-(3,6-Dihydro-2H-pyran-4-yl)-1-methyl-3-(1H-pyrazol-3-yl)-1H-pyrazolo[4,3-b]pyridin-5-yl]-3-methylmorpholine] was tested, and the IC50 [1] was 0.01 to 0.1 µM, the IC50 (ATR/ATRIP) was 0.0022 µM and the “hERG % effect @ conc” value ([2]; @ 10 μM) was −2%. It also gave a Ki [2] of over 10 µM.
`Cc1ccccc1-c1cc(N2CCOC[C@H]2C)nc2c(-c3ccn[nH]3)nn(C)c12` [Compound 49, (3R)-3-Methyl-4-[1-methyl-7-(2-methylphenyl)-3-(1H-pyrazol-5-yl)-1H-pyrazolo[4,3-b]pyridin-5-yl]morpholine] was tested, and the IC50 [1] was 0.01 to 0.1 µM, the IC50 (ATR/ATRIP) was 0.0018 µM and the “hERG % effect @ conc” value ([2]; @ 10 μM) was −18%. It also gave a Ki [2] of over 10 µM.
For `Cc1nn(C)cc1-c1cc(N2CCOC[C@H]2C)nc2c(-c3cc[nH]n3)nn(C)c12` [Compound 19, 7-(1,3-Dimethyl-1H-pyrazol-4-yl)-1-methyl-5-((R)-3-methyl-morpholin-4-yl)-3-(1H-pyrazol-3-yl)-1H-pyrazolo[4,3-b]pyridine], the IC50 [1] was 0.01 to 0.1 µM, the IC50 (ATR/ATRIP) was 0.0034 µM and the “hERG % effect @ conc” value ([2]; @ 10 μM) was −6%. For the same molecule, the Ki [2] was over 10 µM.
In the case of `C[C@@H]1COCCN1c1cc(-c2cncn2C)c2c(n1)c(-c1cc[nH]n1)nn2C` [Compound 42, 1-Methyl-7-(3-methyl-3H-imidazol-4-yl)-5-((R)-3-methyl-morpholin-4-yl)-3-(1H-pyrazol-3-yl)-1H-pyrazolo[4,3-b]pyridine], the IC50 [1] is reported as under 0.01 µM, the IC50 (ATR/ATRIP) is reported as 0.0003 µM and the “hERG % effect @ conc” value ([2]; @ 30 μM) is reported as −26%. For the same molecule, the Ki [2] was over 30 µM.
With `Cc1ccccc1-c1cc(N2CCOC[C@H]2C)nc2c(-c3cc[nH]n3)n[nH]c12` [Compound 35, (3R)-3-Methyl-4-[7-(2-methylphenyl)-3-(1H-pyrazol-3-yl)-1H-pyrazolo[4,3-b]pyridin-5-yl]morpholine] the IC50 [1] was 0.01 to 0.1 µM, the IC50 (ATR/ATRIP) was 0.0005 µM and the “hERG % effect @ conc” value ([2]; @ 10 μM) was −23%. The Ki [2] was over 10 µM.
For `Cc1cc(S(C)(=O)=O)ncc1-c1cc(N2CCOC[C@H]2C)nc2c(-c3cc[nH]n3)nn(C)c12` [Compound 17, 7-(6-Methanesulfonyl-4-methyl-pyridin-3-yl)-1-methyl-5-((R)-3-methyl-morpholin-4-yl)-3-(1H-pyrazol-3-yl)-1H-pyrazolo[4,3-b]pyridine], the IC50 [1] was 0.01 to 0.1 µM, the IC50 (ATR/ATRIP) was 0.0036 µM and the “hERG % effect @ conc” value ([2]; @ 10 μM) was 5%. It also gave a Ki [2] of over 10 µM.
`C[C@@H]1COCCN1c1cc(C2CCOC2)c2c(n1)c(-c1ccn[nH]1)nn2C` (stereo partly drawn) [Compound 70, 1-Methyl-5-((R)-3-methyl-morpholin-4-yl)-3-(2H-pyrazol-3-yl)-7-(tetrahydro-furan-3-yl)-1H-pyrazolo[4,3-b]pyridine] was tested, and the IC50 [1] was 0.01 to 0.1 µM, the IC50 (ATR/ATRIP) was 0.0022 µM and the “hERG % effect @ conc” value ([2]; @ 10 μM) was −20%. For the same molecule, the Ki [2] was over 10 µM.
For `C[C@@H]1COCCN1c1cc(C2CCCOC2)c2c(n1)c(-c1ccn[nH]1)nn2C` (stereo partly drawn) [Compound 67, 1-Methyl-5-((R)-3-methyl-morpholin-4-yl)-3-(2H-pyrazol-3-yl)-7-(tetrahydro-pyran-3-yl)-1H-pyrazolo[4,3-b]pyridine], the IC50 [1] was 0.01 to 0.1 µM, the IC50 (ATR/ATRIP) was 0.0008 µM and the “hERG % effect @ conc” value ([2]; @ 10 μM) was −12%. It also gave a Ki [2] of over 10 µM.
In the case of `Cc1nc([S+](C)[O-])ccc1-c1cc(N2CCOC[C@H]2C)nc2c(-c3cc[nH]n3)nn(C)c12` (stereo partly drawn) [Compound 8, 7-(6-Methanesulfinyl-2-methyl-pyridin-3-yl)-1-methyl-5-((R)-3-methyl-morpholin-4-yl)-3-(1H-pyrazol-3-yl)-1H-pyrazolo[4,3-b]pyridine], the IC50 [1] is reported as under 0.01 µM, the IC50 (ATR/ATRIP) is reported as 0.0021 µM and the “hERG % effect @ conc” value ([2]; @ 10 μM) is reported as −6%. The Ki [2] was over 10 µM.
